According to patent US20040038888A1 (priority 2002, published 2004):
Ends that are not written are not given here.

What was measured:
[1] = test system: mouse adult neural stem cells; experiment: Intracellular ATP assay, adult mouse NSC, non-adherent culture; type: cell-based; conditions: for effect of inhibitor on the PACAP increase of intracellular ATP: co-incubated with PACAP 100 nM, 4 days, 10 uM H89, 1 uM U73122, 1 uM Gö6976
Protocol: The anterior lateral wall of the lateral ventricle of 5-6 week old mice was enzymatically dissociated in 0.8 mg/ml hyaluronidase and 0.5 mg/ml trypsin in DMEM containing 4.5 mg/ml glucose and 80 units/ml DNase at 37° C. for 20 min. The cells were gently triturated and mixed with three volumes of Neurosphere medium (DMEM/F12, B27 supplement, 12.5 mM HEPES pH7.4) containing 20 ng/ml EGF (unless otherwise stated), 100 units/ml penicillin and 100μg/ml streptomycin. After passing through a 70 μm strainer, the cells were pelleted at 160×g for 5 min. The supernatant was subsequently removed and the cells resuspended in Neurosphere medium supplemented as above, plated out in culture dishes and incubated at 37° C. Neurospheres were ready to be split approximately 7 days after plating.
To split neurosphere cultures, neurospheres were collected by centrifugation at 160×g for 5 min. The neurospheres were resuspended in 0.5 ml Trypsin/EDTA in HBSS (1×), incubated at 37° C. for 2 min and triturated gently to aid dissociation. Following a further 3 min incubation at 37° C. and trituration, 3 volumes of ice cold NSPH-media-EGF were added to stop further trypsin activity. The cells were pelleted at 220×g for 4 min, resuspended in fresh Neurosphere medium supplemented with 20 ng/ml EGF and 1 nM bFGF plated out and incubated at 37° C.
Mouse neurospheres, cultured as described above, from passage 2, were seeded in DMEM/F12 supplemented with B27 into a 96-well plate as single cells (10000 cells/well) to the substances to be measured were added at the concentrations indicated. After 3 days incubation, intracellular ATP was measured using the ATP-SL kit from BioThema, Sweden, according to the manufacturer's instructions. PACAP and VIP were purchased from Bachem. Maxadilan was a kind gift from Richard G Titus, Dept Microbiology, Immunology and Pathology, College of Veterinary Medicine and Biological Sciences, Colorado State University.
In experiments where signalling pathways were examined, cells were seeded as single cells as mentioned above. PACAP, 100 nM, was co incubated with 10 uM PKA inhibitor H89 (Alexis-Biochemicals) or 1 uM PLC inhibitor U73122 (Alexis-Biochemicals) or 1 uM of the PKC inhibitor Gö6976 (Sigma-Aldrich). Cells were incubated for 4 days before measurements of ATP.
In the experiment analysing the combinatory effect of PACAP and EGF, PACAP at 100 nM was co-incubated with 3 nM EGF for 3 days.

AP-1 = AP-1 transcription factor reporter assay; type: cell-based, mouse; conditions: PD89059 10 μM with PACAP 100 nM
Protocol: Vectors: Vector DNA containing reporter elements for AP-1 and empty cloning vector (pTAL), with a luciferace reporter were purchased from Promega. The vectors were propagated in E. coli strain JM-109 (Promega) and purified with Qiagens maxi-prep Kit (Qiagen). The concentration was diluted to approximately 1 mg/ml per vector.
Transfection: Transient transfection was performed by seeding cells as above in suspension neurosphere cell culture and adherent neurosphere cell culture (1 to 3 day incubation) using 30,000 single cells/well. Each well was transiently transfected with […] plasmid, 0.6 μg Nupherin-neuron (Biomol) and 0,6 μl of Fugene-6 (Roche). Plasmid and Nupherin was mixed and diluted in DMEM/F12 to a total volume of 50 μl/well, and were incubated for 15 minutes prior to mixing with Fugene-6 that were diluted in DMEM/F12 to a total volume of 50 μl/well. The mix of plasmid and Nupherin and Fugene-6 were incubated for 20 min. The volume was adjusted to 100 μl prior to addition of 100 μl/well of transfection reagent.
Assay: The following day the transiently transfected cells were applied with PACAP (Bachem) to final concentration of 100 nM/well, in the presence or absence of MEK inhibitor, […] (Sigma-Aldrich). Luciferace activity was analysed with steady glow (Promega) according to the instructions of the manufacturer. Cells were analysed 20 hours after induction with PACAP.

NSC from LVW = experiment: Culture of NSC for cell counting; type: cell-based, mouse; conditions: PACAP 100 nM, VEGF 1 nM, in place of EGF, 7 days; VEGF relative to PACAP treated NSC
Protocol: Anterior lateral ventricle wall was dissected and the cells treated as stated above, however, in place of EGF, the medium was supplemented either with PACAP (100 nM), VEGF (1 nM) or a combination of both at the stated concentrations. The cell suspension was plated into wells of a 24 well plate. The medium was further supplemented with PACAP and/or VEGF every 2 days. After 7 days in culture, the NSC washed in phosphate buffered saline and dissociated with trypsin/EDTA. Cells numbers per well were counted using a Bürker chamber. VEGF was purchased from R&D Systems.

Compound: Cn1c2ccccc2c2c3c(c4c5ccccc5n(CCC#N)c4c21)CNC3=O [Gö6976, reference compound]
- effect of inhibitor on the PACAP increase of intracellular ATP [1]: entirely negate the effect of PACAP

Compound: O=S(=O)(NCCNC/C=C/c1ccc(Br)cc1)c1cccc2cnccc12 [H89, reference compound]
- effect of inhibitor on the PACAP increase of intracellular ATP [1]: unaltered

Compound: COc1cccc(-c2cc(=O)c3ccccc3o2)c1N [PD89059, reference compound]
- effect of MEK inhibitor on the PACAP induction of AP-1 (AP-1): inhibited

Compound: COc1ccc2c(c1)CC[C@@H]1[C@@H]2CC[C@]2(C)[C@@H](NCCCCCCN3C(=O)C=CC3=O)CC[C@@H]12 [U73122, reference compound]
- effect of inhibitor on the PACAP increase of intracellular ATP [1]: entirely negate the effect of PACAP

Compound: EGF: mitogen, growth factor for cell cultures from BD Biosciences
- intracellular ATP levels, and hence NSC number ([1]; PACAP 100 nM, EGF 3 nM, alone or combined, 3 days): increased intracellular ATP levels

Compound: Vasoactive intestinal peptide (HSDAVFTDNYTRLRKQMAVKKYLNSILN; ends and bridges not checked; UniProt P01282 125-152, looked up) [VIP, 28-amino acid peptide]
- intracellular ATP, and hence cell number ([1]; VIP at 1 μM, non-adherent conditions, 3 days, relative to control): statistically significant increase in intracellular ATP

Compound: vascular endothelial growth factor [VEGF]
- cell number (NSC from LVW): significant increase in cell number
